We go through 17 compounds from patent US20100010035A1, “Novel Dual Action Receptors Antagonists (Dara) at the Ati and Eta Receptors” (priority 2006, published 2010).

Each structure is given as a SMILES string. pIC50: −log10 of the molar value.

As usually defined, the pIC50 is the IC50 on a negative log10 scale, so that one unit is a factor of ten. A low value points to a large IC50.

Experiment [1] has as its target T1, human ETA receptor (Homo sapiens, UniProt P25101).
T1 construct: CHO cell stably over-expressing the full length human ETA receptor; expressed in transfected cells
T1 sequence (P25101 21-427): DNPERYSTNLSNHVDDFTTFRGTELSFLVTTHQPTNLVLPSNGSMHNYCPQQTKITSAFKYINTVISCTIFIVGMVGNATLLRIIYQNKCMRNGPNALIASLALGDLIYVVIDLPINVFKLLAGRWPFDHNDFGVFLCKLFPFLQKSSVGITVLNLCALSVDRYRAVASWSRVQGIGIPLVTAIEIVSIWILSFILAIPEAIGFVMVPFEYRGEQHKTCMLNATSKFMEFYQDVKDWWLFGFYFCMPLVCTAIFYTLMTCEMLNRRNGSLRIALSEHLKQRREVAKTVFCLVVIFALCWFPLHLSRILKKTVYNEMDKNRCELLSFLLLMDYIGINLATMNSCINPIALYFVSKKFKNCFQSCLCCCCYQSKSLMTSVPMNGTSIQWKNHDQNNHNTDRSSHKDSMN
The experiment in a line: ETA functional assay (FLIPR Ca efflux, Endothelin-1 at EC80). The format is cell-based. The following applies: CHO cells over-expressing full length human ETA receptor; Endothelin-1 as agonist at EC80. On the procedure:
(§1) CHO cell stably over-expressing the full length human ETA receptor was cultured in DMEM (Gibco) with 10% FCS (Hyclone) and selection maintained using 0.5 mg/ml G418 (Gibco). Cell at 70% confluence were trypsnised, resuspended in media and counted. 20,000 cells/well were plated into black polystyrene 384-well plates with transparent bottoms and allowed 16 hours to adhere. The cells were loaded with Flou-4 (TEFLABS, USA) dye in BSS (Gibco) for 1 hour and then washed in HBSS and 0.6 μl of diluted compounds in DMSO added to the cells in 30 μl of HBSS in Multimek liquid handling system (Beckman, USA). The cells were then placed in the Fluorometric Imaging Plate Readers (FLIPR, Molecular Devices, USA) and 20 μl of Endothelin-1 peptide as agonist in HBSS (at EC80) was added in the instrument.
(§2) The Ca efflux was followed for 2 mins and the maximum height of the peak was measured at various compound concentrations and plotted according to the equation
(§3) and IC50 estimated wherein A is the bottom plateau of the curve i.e. the final minimum y value B is the top of the plateau of the curve i.e. the final maximum y value C is the x value at the middle of the curve. This represents the log EC50 value when A+B=100 D is the slope factor. x is the original known x values. y is the original known y values.

Experiment [2] concerns the target T2, human AT1 receptor (Homo sapiens, UniProt P30556).
T2 construct: CHO cell stably over-expressing the full length human AT1 receptor; expressed in transfected cells
T2 sequence (P30556 1-359): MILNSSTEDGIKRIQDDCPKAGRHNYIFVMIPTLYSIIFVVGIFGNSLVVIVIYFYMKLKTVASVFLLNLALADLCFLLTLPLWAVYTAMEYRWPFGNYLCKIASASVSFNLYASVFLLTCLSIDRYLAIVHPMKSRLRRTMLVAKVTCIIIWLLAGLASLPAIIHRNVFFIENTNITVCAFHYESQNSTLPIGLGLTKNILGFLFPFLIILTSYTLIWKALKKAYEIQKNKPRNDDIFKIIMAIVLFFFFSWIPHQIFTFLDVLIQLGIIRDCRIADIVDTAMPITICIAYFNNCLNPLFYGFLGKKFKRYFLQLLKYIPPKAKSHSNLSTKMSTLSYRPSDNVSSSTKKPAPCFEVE
Briefly: AT1 functional assay (FLIPR Ca efflux, Angiotensin-II at EC80). The format is cell-based. To be noted: CHO cells over-expressing full length human AT1 receptor; Angiotensin-II as agonist at EC80. The method, then:
as §1, with “human AT1” for “human ETA”, “in HBSS” for “in BSS”, “30 μd” for “30 μl”, “of Angiotensin-II” for “of Endothelin-1”, “agonist (at EC80)” for “agonist”, “HBSS” for “HBSS (at EC80)”
as §2, §3

On to `CCOCc1cc(Cn2nc(-c3cccs3)c3c(C)nc(CC)cc32)ccc1-c1cc(C)sc1S(=O)(=O)Nc1noc(C)c1C` [Example 22, 3-[2-Ethoxymethyl-4-(6-ethyl-4-methyl-3-thiophen-2-yl-pyrazolo[4,3-c]pyridin-1-ylmethyl)-phenyl]-5-methyl-thiophene-2-sulfonic acid (4,5-dimethyl-isoxazol-3-yl)-amide], for which the pIC50 in experiment [1] is 6.34; in experiment [2], 7.60.

For the compound `Cc1cc2c(ccc(=O)n2Cc2ccc(-c3cc(C)sc3S(=O)(=O)Nc3noc(C)c3C)c(OCC(C)C)c2)c(C)n1` [Example 36, 3-[4-(5,7-Dimethyl-2-oxo-2H-[1,6]naphthyridin-1-ylmethyl)-2-isobutoxy-phenyl]-5-methyl-thiophene-2-sulfonic acid (4,5-dimethyl-isoxazol-3-yl)-amide], the pIC50 was 6.12 in experiment [1] and 7.23 in experiment [2].

On to `CCOc1cc(=O)n(Cc2ccc(-c3cc(C)sc3S(=O)(=O)Nc3noc(C)c3C)c(C)c2)c2cc(CC)nc(CC)c12` [Example 39, 3-[4-(4-Ethoxy-5,7-diethyl-2-oxo-2H-[1,6]naphthyridin-1-ylmethyl)-2-methyl-phenyl]-5-methyl-thiophene-2-sulfonic acid (4,5-dimethyl-isoxazol-3-yl)-amide], for which the pIC50 was 6.11 in experiment [1] and 7.60 in experiment [2].

For `Cc1cc2c(cc(-c3ccccc3)c(=O)n2Cc2ccc(-c3cc(C)sc3S(=O)(=O)Nc3noc(C)c3C)c(C)c2)c(C)n1` [Example 29, 3-[4-(5,7-dimethyl-2-oxo-3-phenyl-2H-[1,6]naphthyridin-1-ylmethyl)-2-methyl-phenyl]-5-methyl-thiophene-2-sulfonic acid (4,5-dimethyl-isoxazol-3-yl)-amide], the pIC50 is 6.53 in experiment [1] and 7.80 in experiment [2].

As for `CCc1cc2c(ccc(=O)n2Cc2ccc(-c3cc(C)sc3S(=O)(=O)Nc3noc(C)c3C)c(F)c2)c(CC)n1` [Example 35, 3-[4-(5,7-Diethyl-2-oxo-2H-[1,6]naphthyridin-1-ylmethyl)-2-fluoro-phenyl]-5-methyl-thiophene-2-sulfonic acid (4,5-dimethyl-isoxazol-3-yl)-amide], the pIC50 is 5.59 in experiment [1] and 7.56 in experiment [2].

Take `Cc1cc2c(c(C)n1)c(-c1ccc(Cl)cc1)nn2Cc1ccc(-c2cc(C)sc2S(=O)(=O)Nc2noc(C)c2C)c(C)c1` [Example 37, 3-{4-[3-(4-Chloro-phenyl)-4,6-dimethyl-pyrazolo[4,3-c]pyridin-1-ylmethyl]-2-methyl-phenyl}-5-methyl-thiophene-2-sulfonic acid (4,5-dimethyl-isoxazol-3-yl)-amide]: the pIC50 in experiment [1] was 6.39; in experiment [2], 6.82.

Consider `CCc1cc2c(ccc(=O)n2Cc2ccc(-c3cc(C)sc3S(=O)(=O)Nc3noc(C)c3C)cc2)c(CC)n1` [Example 7, 3-[4-(5,7-diethyl-2-oxo-2H-[1,6]naphthyridin-1-yl-methyl)-phenyl]-5-methyl-thiophene-2-sulphonic acid-(4,5 dimethyl-isoxazol-3-yl)-amide], for which the pIC50 is 6.09 in experiment [1] and 7.61 in experiment [2].

Regarding `CCOCc1cc(Cn2nc(-c3ccc(OC)cc3)c3c(C)nc(CC)cc32)ccc1-c1cc(C)sc1S(=O)(=O)Nc1noc(C)c1C` [Example 23, 3-{2-Ethoxymethyl-4-[6-ethyl-3-(4-methoxy-phenyl)-4-methyl-pyrazolo[4,3-c]pyridin-1-ylmethyl]-phenyl}-5-methyl-thiophene-2-sulfonic acid (4,5-dimethyl-isoxazol-3-yl)-amide], the pIC50 in experiment [1] was 6.61; in experiment [2] it was 7.66.

Regarding `CCc1nc(C)cc2c1c(CC)nn2Cc1ccc(-c2cc(C)sc2S(=O)(=O)Nc2noc(C)c2C)c(COC)c1` [Example 38, 3-[4-(3,4-Diethyl-6-methyl-pyrazolo[4,3-c]pyridin-1-ylmethyl)-2-methoxymethyl-phenyl]-5-methyl-thiophene-2-sulfonic acid (4,5-dimethyl-isoxazol-3-yl)-amide], the pIC50 is 5.98 in experiment [1] and 7.76 in experiment [2].

In the case of `CCOCc1cc(Cn2nc(-c3cccs3)c3c(C)nc(CC)cc32)ccc1-c1cc(C)sc1S(=O)(=O)Nc1onc(C)c1C` [Example 27, 3-[2-Ethoxymethyl-4-(6-ethyl-4-methyl-3-thiophen-2-yl-pyrazolo[4,3-c]pyridin-1-ylmethyl)-phenyl]-5-methyl-thiophene-2-sulfonic acid (3,4-dimethyl-isoxazol-5-yl)-amide], the pIC50 is 6.19 in experiment [1] and 7.81 in experiment [2].

With `CCc1cc(OCc2ccc(-c3ccsc3S(=O)(=O)Nc3noc(C)c3C)cc2)c(C(=O)c2ccccc2)c(C)n1` [Example 4, 3-[4-(3-Benzoyl-6-ethyl-2-methyl-pyridin-4-yloxymethyl)-phenyl]-thiophene-2-sulphonic acid (4,5-dimethyl-isoxazol-3-yl)-amide], the negative-log IC50 (pIC50) in experiment [1] was 5.21; in experiment [2], 7.54.

On to `COCc1cc(Cn2nc(-c3cccs3)c3c(C)nc(C)cc32)ccc1-c1cc(C)sc1S(=O)(=O)Nc1noc(C)c1C` [Example 21, 3-[4-(4,6-dimethyl-3-thiophen-2-yl-pyrazolo[4,3-c]pyridin-1-ylmethyl)-2-methoxymethyl-phenyl]-5-methyl-thiophene-2-sulfonic acid (4,5-dimethyl-isoxazol-3-yl)-amide], for which the negative logarithm of the IC50 (pIC50) was 6.33 in experiment [1] and 8.13 in experiment [2].

For the compound `Cc1cc2c(c(C)n1)c(-c1ccccc1)nn2Cc1ccc(-c2cc(C)sc2S(=O)(=O)Nc2noc(C)c2C)c(C)c1` [Example 18], the pIC50 in experiment [1] is 5.84; in experiment [2], 8.10.

On to `CCOCc1cc(Cn2nc(Cn3nc(C)cc3C)c3c(C)nc(C)cc32)ccc1-c1cc(C)sc1S(=O)(=O)Nc1noc(C)c1C` [Example 15, 3-{4-[3-(3,5-Dimethyl-pyrazol-1-ylmethyl)-4,6-dimethyl-pyrazolo[4,3-c]pyridin-1-ylmethyl]2-ethoxymethyl-phenyl}-5-methyl-thiophene-2-sulphonic acid (4,5-dimethyl-isoxazol-3-yl)-amide], for which the pIC50 in experiment [1] was 6.30; in experiment [2], 7.94.

For the compound `CCc1cc2c(ccc(=O)n2Cc2ccc(-c3cc(C)sc3S(=O)(=O)Nc3onc(C)c3C)c(C)c2)c(CC)n1` [Example 30, 3-[4-(5,7-diethyl-2-oxo-2H-[1,6]naphthyridin-1-ylmethyl)-2-methyl-phenyl]-5-methyl-thiophene-2-sulfonic acid (3,4-dimethyl-isoxazol-5-yl)-amide], the negative-log IC50 (pIC50) in experiment [1] is 5.48; in experiment [2], 7.72.

Regarding `CCc1cc2c(c(Oc3ccccc3)cc(=O)n2Cc2ccc(-c3ccsc3S(=O)(=O)Nc3noc(C)c3C)cc2)c(CC)n1` [Example 8, 3-[4-(5,7-diethyl-2-oxo-4-phenoxy-2H-[1,6]naphthyridin-1-ylmethyl)-phenyl]-thiophene-2-sulphonic acid(4,5-dimethyl-isoxazol-3-yl)-amide], the pIC50 in experiment [1] is 5.54; in experiment [2] it was 7.68.

Take `CCc1cc2c(c(C)n1)c(-c1ccc(OC)cc1)nn2Cc1ccc(-c2cc(C)sc2S(=O)(=O)Nc2noc(C)c2C)c(C)c1` [Example 24, 3-{4-[6-Ethyl-3-(4-methoxy-phenyl)-4-methyl-pyrazolo[4,3-c]pyridin-1-ylmethyl]-2-methyl-phenyl}-5-methyl-thiophene-2-sulfonic acid (4,5-dimethyl-isoxazol-3-yl)-amide]: the pIC50 in experiment [1] is 5.72; in experiment [2], 7.56.
